We go through nine molecules from patent US11040107B2, “Dosing regimens and related compositions and methods” (Apellis Pharmaceuticals, Inc., priority 2017, dated 2021).

In data set [1] the test system is inflammatory cytokines in the lungs. Kind of data set: Ascaris suum challenge model. In kind it is in vivo, cynomolgus monkeys. The settings on record: nebulized 20 mg/day or 15 mg/kg/d for 14 days; during treatment and 28 days after cessation.
Data set [2] deals with RBCs from a patient with PNH. Kind of data set: Modified Ham's test with flow cytometry for CD59 and C3d. Type of data set: cell-based, human. How it is done: A modified Ham's test was performed to assess the ability of compstatin analogs to protect PNH RBCs from complement-mediated lysis. […] Exposure to heat inactivated human serum was used as a control representing no significant complement-mediated lysis as complement is inactivated by heat. Exposure to acidified human serum and magnesium (Mg^2+) in the absence of complement inhibitors (pane labeled Mg^2+) was used as a control representing maximum lysis.
Following incubation, cells were stained with antibodies to CD59 and C3d. CD59 level permitted the classification of the PNH RBCs as Type I, Type II, or Type III. Staining for C3d, a product of C3 activation and cleavage was used as a marker of C3 and C3 activation product deposition (loading). Flow cytometric analysis was performed to assess CD59 and C3d on RBC surfaces and to quantify the percentages of Type I, Type II, and Type III cells present in various samples.

Data set [3] is described as follows: Phase 1 single and multiple ascending dose trial of inhaled CA28. Type of data set: in vivo, human. To be noted: for adverse event: one subject. How it is done: In the single ascending dose part of the trial, 16 subjects were enrolled in four cohorts of four subjects each.
Four subjects were enrolled in the first cohort of the multiple ascending dose part of the trial. These subjects were to receive 14 consecutive days of treatment with a 60 mg/day dose of the drug. […] The trial was paused and subsequently resumed, with subjects receiving 30 mg/day. […] The trial was then terminated.

The target in data set [4] is T1, complement component C3 (human) (human, UniProt P01024 23-1663). The data set is described as follows: cell-based or functional assay.
In data set [5] the target is T1, complement component C3 (human). The data set is described as follows: cell-based or functional assay. The source holds these as a separate data set.
Data set [6] shares this target. Kind of data set: cell-based or functional assay. This is another data set of the same source.
Data set [7] shares this target. The data set is described as follows: cell-based or functional assay. The source holds these as a separate data set.
The target is the same in data set [8]. Kind of data set: cell-based or functional assay. The source holds these as a separate data set.

As to `CC[C@H](C)[C@H](NC(C)=O)C(=O)N[C@H]1CSSC[C@@H](C(=O)N[C@H](C(N)=O)[C@@H](C)O)NC(=O)[C@H](CCCNC(=N)N)NC(=O)[C@H](Cc2cnc[nH]2)NC(=O)[C@H](C)NC(=O)CNC(=O)[C@H](Cc2c[nH]c3ccccc23)NC(=O)[C@H](CC(=O)O)NC(=O)[C@H](CCC(N)=O)NC(=O)[C@H](Cc2cn(C)c3ccccc23)NC(=O)[C@H](C(C)C)NC1=O` [CA28], the “levels of inflammatory cytokines in broncheoalveolar lavage fluid after allergen challenge” value in data set [1] is reported as “had a pharmacological effect”. Further, in data set [2] (100 ug/ml or more), the “protection from complement-mediated lysis” value is given as “complete protection from complement-mediated lysis”. Also, the results for the “% C3 (Type I)” value in data set [2] (1 micrograms/ml), in data set [2] (100 micrograms/ml) and in data set [2] (500 micrograms/ml) were 1.7%, 0.08% and 0.14%, respectively. In addition, the “% C3 (Type III)” value in data set [2] (1 micrograms/ml) is 1.2%; in data set [2] (4 micrograms/ml), 0.83%; in data set [2] (8 micrograms/ml), 0.7%; in data set [2] (15 micrograms/ml), 0.98%; in data set [2] (25 micrograms/ml) it was 0.75%; in data set [2] (100 micrograms/ml), 0.1%. Further, the “% C3 (Type III)” value in data set [2] (500 micrograms/ml) was 0.09%. In addition, the “Type II %” value in data set [2] (8 micrograms/ml) came to 66%. In addition, the “Type I %” value is 15% in data set [2] (15 micrograms/ml) and 14.96% in data set [2] (25 micrograms/ml). Moreover, the figures for the “% C3 (Type II)” value in data set [2] (25 micrograms/ml), in data set [2] (100 micrograms/ml) and in data set [2] (500 micrograms/ml) were 9.3%, 0.92% and 0.63%, respectively. For the same molecule, in data set [2] (100 micrograms/ml), the “Type III %” value amounted to 37.96%. Also, the “C3 loading on PNH red cells” value in data set [2] (100 micrograms/ml compound or higher) is on record as “virtually no C3 loading”. Further, the adverse event result in data set [3] (30 mg/day inhaled, after 10 days) was “signs and symptoms consistent with a potential bacterial infection”; in data set [3] (60 mg/day inhaled, after nine days), “signs and symptoms consistent with a potential bacterial infection”. The safety and tolerability entry in data set [3] (single inhaled dose 20, 60, 150 or 350 mg) is “well tolerated”.

B1: CA28-AEEAc-Lys(mPEG40K-succinyl) (peptide)
peptide: ICVWQDWGAHRCTK
modifications: N-terminal acetyl; 1-methyl-tryptophan at position 4; disulfide bond Cys2-Cys12; AEEAc spacer between Thr13 and Lys; linear monomethoxy 40 kD PEG (NOF SUNBRIGHT ME-400CS, succinyl linkage) on the Lys side chain; C-terminal amide
For the molecule B1, the “IC50 (read off the curve): % inhibition of classical pathway complement activation (C3b deposition ELISA, human plasma)” value in data set [4] was approximately 700 nM.

B2: (CA28-AEEAc)8-PEG40k (peptide)
peptide: ICVWQDWGAHRCTK
modifications: N-terminal acetyl; 1-methyl-tryptophan at position 4; disulfide bond Cys2-Cys12; AEEAc spacer between Thr13 and Lys; Lys side chain coupled to one arm of an eight-arm 40 kD PEG (NOF SUNBRIGHT HGEO-400GS); C-terminal amide
Regarding B2, in data set [5], the “IC50 on a molar basis of the compound, classical complement inhibition assay” value is approximately 260 nM. In addition, the “IC50, classical complement inhibition assay, as a function of CA28 moiety concentration” value in data set [6] worked out at 1930 nM.

B3: CA28-AEEAc-Lys-(PEG30k) (peptide)
peptide: ICVWQDWGAHRCTK
modifications: not fully specified; N-terminal acetyl; 1-methyl-tryptophan at position 4; disulfide bond Cys2-Cys12; AEEAc (8-amino-3,6-dioxaoctanoyl) spacer between Thr13 and Lys; linear monofunctional 30 kD PEG (NOF SUNBRIGHT ME-300GS) on the Lys side chain; C-terminal amide
Turning to B3, in data set [6], the “IC50, classical complement inhibition assay (C3b deposition ELISA, human plasma)” value came to 1260 nM.

B4: CA28-AEEAc-Lys(mPEG40K-hexanoyl) (peptide)
peptide: ICVWQDWGAHRCTK
modifications: N-terminal acetyl; 1-methyl-tryptophan at position 4; disulfide bond Cys2-Cys12; AEEAc spacer between Thr13 and Lys; linear monomethoxy 40 kD PEG (NOF SUNBRIGHT ME-400HS, hexanoyl linkage) on the Lys side chain; C-terminal amide
For the molecule B4, the “IC50 (read off the curve): % inhibition of classical pathway complement activation (C3b deposition ELISA, human plasma)” value in data set [4] is approximately 700 nM.

B5: CA28-2GS-BF (peptide)
peptide: ICVWQDWGAHRCTK
modifications: not fully specified; N-terminal acetyl; 1-methyl-tryptophan at position 4; disulfide bond Cys2-Cys12; AEEAc spacer between Thr13 and Lys; Lys side chain coupled to one end of a bifunctional linear 40 kD PEG of the GS type (glutaryl, amide plus ester linkage); C-terminal amide
With B5, in data set [7], the “Q1 (Type III cells with C3d deposition) % Parent, modified Ham's test, at 50 ug/ml” value is 0.01%; the “Q2 (Type I and II cells with C3d deposition) % Parent, modified Ham's test, at 50 ug/ml” value was 0.01%; the “Q3 (Type III cells without significant C3d deposition) % Parent, modified Ham's test, at 50 ug/ml” value stood at 61.5%; the “Q4 (Type I and II cells without significant C3d deposition) % Parent, modified Ham's test, at 50 ug/ml” value was 38.5%.

B6: CA28-2TS-BF (peptide)
peptide: ICVWQDWGAHRCTK
modifications: not fully specified; N-terminal acetyl; 1-methyl-tryptophan at position 4; disulfide bond Cys2-Cys12; AEEAc spacer between Thr13 and Lys; Lys side chain coupled by a carbamate to one end of a bifunctional linear 40 kD PEG of the TS type; C-terminal amide
For B6, the “IC50 (read off the curve): % inhibition of alternative pathway complement activation (LPS-coated plate, C3b deposition ELISA, human plasma) [B]” value in data set [8] was approximately 400 nM.

B7: CA28-AEEAc-Lys-(PEG40k) (peptide)
peptide: ICVWQDWGAHRCTK
modifications: N-terminal acetyl; 1-methyl-tryptophan at position 4; disulfide bond Cys2-Cys12; AEEAc spacer between Thr13 and Lys; linear monomethoxy 40 kD PEG (NOF SUNBRIGHT ME-400GS, glutaryl linkage) on the Lys side chain; C-terminal amide
With B7, the “IC50 (read off the curve): % inhibition of classical pathway complement activation (C3b deposition ELISA, human plasma)” value in data set [4] is approximately 700 nM. In addition, the “IC50, classical complement inhibition assay (C3b deposition ELISA, human plasma)” value in data set [6] worked out at 1290 nM.

B8: CA28-AEEAc-Lys(mPEG40K-carbonyl) (peptide)
peptide: ICVWQDWGAHRCTK
modifications: N-terminal acetyl; 1-methyl-tryptophan at position 4; disulfide bond Cys2-Cys12; AEEAc spacer between Thr13 and Lys; linear monomethoxy 40 kD PEG (NOF SUNBRIGHT ME-400TS, carbonyl linkage) on the Lys side chain; C-terminal amide
Regarding B8, the “IC50 (read off the curve): % inhibition of classical pathway complement activation (C3b deposition ELISA, human plasma)” value in data set [4] was approximately 700 nM.
